Calls of active or inactive are those of the source. No cut-off for these calls is given here.
What was measured:
Assay type in all cases: functional
Rattus norvegicus [1] = assay: Antiimplantation activity against Sprague-Dawley albino rat at 5 mg/kg, po administered for 1-5 days measured on day 10 of pregnancy relative to control
Rattus norvegicus [2] = assay: Antiimplantation activity against Sprague-Dawley albino rat at 10 mg/kg, po administered for 1-5 days measured on day 10 of pregnancy relative to control
Rattus norvegicus [3] = assay: Antiimplantation activity against Sprague-Dawley albino rat at 2 mg/kg, po administered for 1-5 days measured on day 10 of pregnancy relative to control
Rattus norvegicus [4] = assay: Antiimplantation activity against Sprague-Dawley albino rat at 1 mg/kg, po administered for 1-5 days measured on day 10 of pregnancy relative to control
Rattus norvegicus [5] = assay: Antiimplantation activity against Sprague-Dawley albino rat at 2.5 mg/kg, po administered for 1-5 days measured on day 10 of pregnancy relative to control
Rattus norvegicus [6] = assay: Antiimplantation activity against Sprague-Dawley albino rat at 1.25 mg/kg, po administered for 1-5 days measured on day 10 of pregnancy relative to control
Rattus norvegicus [7] = assay: Antiimplantation activity against Sprague-Dawley albino rat at 1.5 mg/kg, po administered for 1-5 days measured on day 10 of pregnancy relative to control

| Structure (SMILES) | Activity (Rattus norvegicus [1]) [%] | Activity (Rattus norvegicus [2]) [%] | Activity (Rattus norvegicus [3]) | Activity (Rattus norvegicus [4]) [%] | Activity (Rattus norvegicus [5]) [%] | Activity (Rattus norvegicus [6]) [%] | Activity (Rattus norvegicus [7]) [%] |
| --- | --- | --- | --- | --- | --- | --- | --- |
| COc1ccc2c(c1)CCC1=C2C(=O)C[C@]2(C)[C@@H](O)CC[C@@H]12 | 100 | 100 | inactive | – | – | – | – |
| CCC1(O)C[C@]2(C)[C@@H](O)CC[C@H]2C2=C1c1ccc(OC)cc1CC2 (stereo partly specified) | 100 | 100 | – | 50 | 100 | 100 | – |
| C=CCC1(O)C[C@]2(C)[C@@H](O)CC[C@H]2C2=C1c1ccc(OC)cc1CC2 (stereo partly specified) | 100 | 100 | 100% | 60 | – | – | 60 |
| COc1ccc2c(c1)CCC1=C2C(O)(Cc2ccccc2)C[C@]2(C)[C@@H](O)CC[C@@H]12 (stereo partly specified) | – | 100 | – | – | – | – | – |
| C=CCC1(O)C[C@]2(C)[C@@H](OC(C)=O)CC[C@H]2C2=C1c1ccc(OC)cc1CC2 (stereo partly specified) | – | 100 | – | – | – | – | – |
| C=CCC1=C[C@]2(C)[C@@H](O)CC[C@H]2C2=C1c1ccc(OC)cc1CC2 | – | 100 | – | – | – | – | – |
| COc1ccc2c(c1)OC(C)(C)C(c1ccccc1)C2c1ccc(OCCN2CCCC2)cc1 (stereo unspecified) [ORMELOXIFENE] | – | 100 | – | 100 | – | – | – |
| COc1ccc2c(c1)CCC1=C2C(C)(O)C[C@]2(C)[C@@H](O)CC[C@@H]12 (stereo partly specified) | 100 | 100 | 100% | – | – | – | – |
